The source of these data is patent US20150139973A1, “OPHTHALMOLOGICAL VEHICLE SYSTEM FOR DRUGS, OPHTHALMOLOGICAL KIT AND ALSO USE OF AN OPHTHALMOLOGICAL COMPOSITION” (F. HOLZER GMBH, priority 2012, published 2015).

SMILES strings stand for the structures.

The test system of this series is human corneal epithelial cell line HCE-T. In words: Vitality determination on corneal epithelial cells in culture (Cell Titer Blue test). Type of series: cell-based. The following applies: 60 minutes incubation. The protocol: The cytotoxicity tests were performed on the human corneal epithelial cell line […]. in the cell test. Cultivation was effected in a black 96 well plate (Nunc). Per well, 25,000 cells were sown and cultivated for 48 h. Determination of the viability was implemented with the Cell Titer Blue® test. The dye resazurin is hereby added to the cells after exposure with the samples. Viable cells are able, because of their mitochondrial activity, to convert the resazurin into the fluorescent resorufin which can be determined fluorimetrically (Illustration 1). Via positive control (Krebs-Ringer-buffer-KRB and saline phosphate buffer-PBS) and also negative control (lysis buffer), the viability of the cells can be expressed as a percentage. All samples were determined with n=6. For the determination, the cell culture medium was removed, the cells were rinsed with KRB and incubated for 60 minutes with the various samples and also controls. […] Thereafter, all samples were treated with KRB and resazurin according to Promega protocol and measured with a Genios Plate Reader (Tecan).

`CCCCCCCCCCCCCCCC(=O)OC(C)C` [Sample K4, isopropyl palmitate]: the cytotoxicity result is “lowest cytotoxicity” and the “survival rate of the cells” value is reported as 100%.
